Laboratory results: publication PMC7411887, “New Paracyclophanylthiazoles with Anti-Leukemia Activity: Design, Synthesis, Molecular Docking, and Mechanistic Studies” (Molecules, 2020)

How the values were obtained:
Experiment in all cases: NCI single-dose screen (SRB)
Format in all cases: cell-based
[1] = system: SN12C; details: Homo sapiens; Renal Cancer SN12C; 10^−5 M; read-out: Growth inhibition percentage
Method: (§1) The methodology of the NCI anticancer screening was described in detail elsewhere (http://www.dtp.nci.nih.gov). […] Tested compounds were added to the culture at a single concentration (10^−5 M) and the cultures were incubated for 48 h. End-point determinations were made with a protein binding dye, SRB. Results for each tested compound were reported as the percentage growth of the treated cells when compared to the untreated control cells. The percentage growth was evaluated spectrophotometrically versus controls not treated with test agents. All experiments were repeated three times (Table 1).
(§2) Briefly, the protocol was performed on 60 human tumor cell lines derived from different nine neoplastic diseases. […] If the results obtained met selection criteria, then the compound was tested again on all 60 cell lines in 5× 10-fold dilutions with the top dose being 10^−4 M or 150 μg/mL. Detailed methods are described in the Supplementary Materials related to this article.
(§3) on their site (http://www.dtp.nci.nih.gov). But briefly, the protocol performed at sixty human
(§4) National Cancer Institute, Bethesda, USA. If the results obtained meet selection criteria, then the
(§5) 10-4 molar or 150 μg/mL. […]

[2] = system: PC-3; details: Homo sapiens; Prostate Cancer PC-3; 10^−5 M; read-out: Growth inhibition percentage
Method: as §1, §2, §3, §4, §5

[3] = system: M14; details: Homo sapiens; Melanoma M14; 10^−5 M; read-out: Growth inhibition percentage
Method: as §1, §2, §3, §4, §5

[4] = system: K-562; details: Homo sapiens, K562; Leukemia K-562; 10^−5 M; read-out: Growth inhibition percentage
Method: as §1, §2, §3, §4, §5

[5] = system: HOP-92; details: Homo sapiens; Non-Small-Cell Lung Cancer HOP-92; 10^−5 M; read-out: Growth inhibition percentage
Method: as §1, §2, §3, §4, §5

[6] = system: MCF7; details: Homo sapiens; Breast Cancer MCF7; 10^−5 M; read-out: Growth inhibition percentage
Method: as §1, §2, §3, §4, §5

[7] = system: MOLT-4; details: Homo sapiens; Leukemia MOLT-4; 10^−5 M; read-out: Growth inhibition percentage
Method: as §1, §2, §3, §4, §5

[8] = system: T-47D; details: Homo sapiens, T47D; Breast Cancer T-47D; 10^−5 M; read-out: Growth inhibition percentage
Method: as §1, §2, §3, §4, §5

[9] = system: A498; details: Homo sapiens; Renal Cancer A498; 10^−5 M; read-out: Growth inhibition percentage
Method: as §1, §2, §3, §4, §5

[10] = system: 786-0; details: Homo sapiens; Renal Cancer 786-0; 10^−5 M; read-out: Growth inhibition percentage
Method: as §1, §2, §3, §4, §5

[11] = system: RPMI-8226; details: Homo sapiens; Leukemia RPMI-8226; 10^−5 M; read-out: Growth inhibition percentage
Method: as §1, §2, §3, §4, §5

[12] = system: SF-295; details: Homo sapiens; CNS Cancer SF-295; 10^−5 M; read-out: Growth inhibition percentage
Method: as §1, §2, §3, §4, §5

[13] = system: MDA-MB-231/ATCC; details: Homo sapiens; Breast Cancer MDA-MB-231/ATCC; 10^−5 M; read-out: Growth inhibition percentage
Method: as §1, §2, §3, §4, §5

[14] = system: HT29; details: Homo sapiens, HT-29; Colon Cancer HT29; 10^−5 M; read-out: Growth inhibition percentage
Method: as §1, §2, §3, §4, §5

[15] = system: NCI-H322M; details: Homo sapiens; Non-Small-Cell Lung Cancer NCI-H322M; 10^−5 M; read-out: Growth inhibition percentage
Method: as §1, §2, §3, §4, §5

[16] = system: UO-31; details: Homo sapiens; Renal Cancer UO-31; 10^−5 M; read-out: Growth inhibition percentage
Method: as §1, §2, §3, §4, §5

[17] = system: OVCAR-3; details: Homo sapiens; Ovarian Cancer OVCAR-3; 10^−5 M; read-out: Growth inhibition percentage
Method: as §1, §2, §3, §4, §5

[18] = system: MALME-3M; details: Homo sapiens; Melanoma MALME-3M; 10^−5 M; read-out: Growth inhibition percentage
Method: as §1, §2, §3, §4, §5

[19] = system: IGROV1; details: Homo sapiens, IGROV-1; Ovarian Cancer IGROV1; 10^−5 M; read-out: Growth inhibition percentage
Method: as §1, §2, §3, §4, §5

[20] = system: OVCAR-4; details: Homo sapiens; Ovarian Cancer OVCAR-4; 10^−5 M; read-out: Growth inhibition percentage
Method: as §1, §2, §3, §4, §5

[21] = system: TK-10; details: Homo sapiens; Renal Cancer TK-10; 10^−5 M; read-out: Growth inhibition percentage
Method: as §1, §2, §3, §4, §5

[22] = system: HCT-15; details: Homo sapiens; Colon Cancer HCT-15; 10^−5 M; read-out: Growth inhibition percentage
Method: as §1, §2, §3, §4, §5

[23] = system: KM12; details: Homo sapiens; Colon Cancer KM12; 10^−5 M; read-out: Growth inhibition percentage
Method: as §1, §2, §3, §4, §5

[24] = system: SF-268; details: Homo sapiens; CNS Cancer SF-268; 10^−5 M; read-out: Growth inhibition percentage
Method: as §1, §2, §3, §4, §5

[25] = system: NCI/ADR-RES; details: Homo sapiens; Ovarian Cancer NCI/ADR-RES; 10^−5 M; read-out: Growth inhibition percentage
Method: as §1, §2, §3, §4, §5

[26] = system: UACC-257; details: Homo sapiens; Melanoma UACC-257; 10^−5 M; read-out: Growth inhibition percentage
Method: as §1, §2, §3, §4, §5

[27] = system: CAKI-1; details: Homo sapiens; Renal Cancer CAKI-1; 10^−5 M; read-out: Growth inhibition percentage
Method: as §1, §2, §3, §4, §5

[28] = system: SF-539; details: Homo sapiens; CNS Cancer SF-539; 10^−5 M; read-out: Growth inhibition percentage
Method: as §1, §2, §3, §4, §5

[29] = system: NCI-H522; details: Homo sapiens; Non-Small-Cell Lung Cancer NCI-H522; 10^−5 M; read-out: Growth inhibition percentage
Method: as §1, §2, §3, §4, §5

[30] = system: SK-OV-3; details: Homo sapiens; Ovarian Cancer SK-OV-3; 10^−5 M; read-out: Growth inhibition percentage
Method: as §1, §2, §3, §4, §5

Work on `CCN1C(=O)C(=CC(=O)OC)SC1=NNC(=O)c1cc2ccc1CCc1ccc(cc1)CC2` [Compound 3e] yielded an inhibition at 10 µM [1] of 4.97%, an inhibition at 10 µM [2] of 43.3% and an inhibition at 10 µM [3] of 12.8%. It also gave an inhibition at 10 µM [4] of 45.8%, an inhibition at 10 µM [5] of 18.4% and an inhibition at 10 µM [6] of 56.3%. For the same compound, the inhibition at 10 µM [7] was 62.9%, the inhibition at 10 µM [8] was 5.77% and the inhibition at 10 µM [9] was 6.63%. For the same compound, the inhibition at 10 µM [10] was 9.45%, the inhibition at 10 µM [11] was 114% and the inhibition at 10 µM [12] was 3.13%. It also gave an inhibition at 10 µM [13] of 3.95%, an inhibition at 10 µM [14] of 54.8% and an inhibition at 10 µM [15] of 7.75%. The inhibition at 10 µM [16] was 21%, the inhibition at 10 µM [17] was 7.09% and the inhibition at 10 µM [18] was 8.06%. It also gave an inhibition at 10 µM [19] of 11.6%, an inhibition at 10 µM [20] of 10% and an inhibition at 10 µM [21] of 6.5%. It also gave an inhibition at 10 µM [22] of 31.6%, an inhibition at 10 µM [23] of 15% and an inhibition at 10 µM [24] of 2.18%. For the same compound, the inhibition at 10 µM [25] was 13.5%, the inhibition at 10 µM [26] was 7.26% and the inhibition at 10 µM [27] was 0%. For the same compound, the inhibition at 10 µM [28] was 9.82%, the inhibition at 10 µM [29] was 40.3% and the inhibition at 10 µM [30] was 0%.
